Legend:
[1] = tested on: Plasmodium falciparum; assay: Antimalarial activity against Plasmodium falciparum K1 assessed as inhibition of [3H]hypoxanthine incorporation preincubated for 48 hrs measured 24 hrs post [3H]hypoxanthine addition by liquid scintillation counting; assay type: functional, organism-based
[2] = tested on: Plasmodium falciparum; assay: Antimalarial activity against Plasmodium falciparum […] assessed as inhibition of [3H]hypoxanthine incorporation preincubated for 48 hrs measured 24 hrs post [3H]hypoxanthine addition by liquid scintillation counting; assay type: functional, organism-based

In the case of `CCNc1ccc2nc3c4ccccc4/c(=N/c4ccncc4)cc-3oc2c1`, the IC50 [1] is reported as 5 nM and the IC50 [2] is reported as 7.5 nM.

Work on `Nc1ccc2nc3c4ccccc4/c(=N/c4ccncc4)cc-3oc2c1` yielded an IC50 [1] of 17.1 nM and an IC50 [2] of 24 nM.

Work on `CN(C)c1ccc2nc3ccc(=[N+](C)C)cc-3sc2c1` [METHYLENE BLUE CATION] yielded an IC50 [1] of 5.2 nM and an IC50 [2] of 4.2 nM.

For `CCN(CC)c1ccc2nc3c4ccccc4/c(=N\c4ccncc4)cc-3oc2c1`, the IC50 [1] was 6.5 nM and the IC50 [2] was 11 nM.
